# Test results from article PMC7824859, “BmK NSPK, a Potent Potassium Channel Inhibitor from Scorpion Buthus martensii Karsch, Promotes Neurite Outgrowth via NGF/TrkA Signaling Pathway” (Toxins, 2021).
# Read-outs that look alike come from different tables or passages of the source.
# Legend:
# [1] = tested on: spinal cord neurons (SCNs); test: Neurite outgrowth, MAP2 immunocytochemistry in SCNs; type: cell-based, C57BL/6 mice
# Method: (§1) SCN cultures were performed as described previously. The dissociated neurons were planted into poly-L-lysine-coated 35 mm Petri dishes, 96-well plates at densities of 2 × 10^3 cells/dish for patch clamp, 2.25 × 10^5 and 2 × 10^3 cells/well for Ca^2+ imaging and neurite outgrowth experiments, respectively. Cells at 6–8 DIVs (days in vitro) were used to measure K^+ and Na^+ currents, membrane potential, or intracellular Ca^2+ concentration ([Ca^2+]i).
# Immunocytochemistry was performed as described previously. After fixation, permeabilization, and blocking, neurons were incubated with primary antibody against MAP2 (1:1000) overnight at 4 °C and Alexa Fluor 488-conjugated goat anti-rabbit secondary antibody (1:1000) for 1 h at room temperature (RT), respectively. Hoechst 33,342 (1.6 μg/mL) was added into each well and incubated for 20 min to stain the nuclei. The images were captured by an eclipse inverted fluorescence microscope (Nikon, Tokyo, Japan). Neurites were manually tracked using ImageJ software (FIJI, version 1.51 g, NIH, Bethesda, MD, USA). Only the neurons with total neurite length ≥50 μm were used for quantification. The experiment was performed double blindly.
# [2] = tested on: voltage-gated sodium channels (VGSCs), Na+ currents in SCNs; test: Na+ currents, whole-cell patch clamp in SCNs; type: cell-based, C57BL/6 mice
# Method: as §1
# (§2) Current-clamp recordings can provide useful information about the contribution of a channel to membrane potential. Membrane potentials, Na^+ and K^+ currents in SCNs (6–8 DIVs), were recorded using whole-cell patch clamp using an EPC-10 amplifier and PatchMaster software (HEKA, Pfalz, Germany). Pipettes were pulled from 1.5 mm capillary tubing using a P-1000 puller (Sutter Instrument, Novato, CA, USA). The pipette resistance was 2–4 MΩ.
# (§3) For current-clamp recordings, to record changes in membrane potential, patch pipettes were filled with intracellular solution containing the following (in mM): KCl 140, MgCl2 5, CaCl2 2.5, EGTA 5, ATP 4, GTP 0.3, and HEPES 10 (pH adjusted to 7.3 with KOH). The external solution contained the following (in mM): NaCl 140, MgCl2 1, KCl 5, CaCl2 2, glucose 10, and HEPES 10 (pH adjusted to 7.3 with NaOH). The membrane potentials were recorded by a 0 pA input current with a duration of 1 s. For voltage-clamp recordings, to record potassium currents, patch pipettes were filled with an internal solution containing (in mM): KCl 140, CaCl2 1, MgCl2 2.5, HEPES 10, EGTA 11, and ATP 4, and pH was adjusted to 7.2 with KOH. Cells were bathed in an external solution containing the following (in mM): choline chloride 150, KCl 5, MgCl2 1, HEPES 10, D-glucose 10, and NMDG 2, and pH was adjusted to 7.4 with KOH. […] Data were collected and analyzed using PatchMaster (HEKA Electronics, Pfalz, Germany) and SigmaPlot (version 10.3, Sigma-Aldrich). […]
# [3] = tested on: Kv channels, outward K+ currents (IK) in SCNs; test: Outward K+ current IK (IA + ID), whole-cell patch clamp in SCNs; type: cell-based, C57BL/6 mice
# Method: as §1, §2
# For current-clamp recordings, to record changes in membrane potential, patch pipettes were filled with intracellular solution containing the following (in mM): KCl 140, MgCl2 5, CaCl2 2.5, EGTA 5, ATP 4, GTP 0.3, and HEPES 10 (pH adjusted to 7.3 with KOH). The external solution contained the following (in mM): NaCl 140, MgCl2 1, KCl 5, CaCl2 2, glucose 10, and HEPES 10 (pH adjusted to 7.3 with NaOH). The membrane potentials were recorded by a 0 pA input current with a duration of 1 s. For voltage-clamp recordings, to record potassium currents, patch pipettes were filled with an internal solution containing (in mM): KCl 140, CaCl2 1, MgCl2 2.5, HEPES 10, EGTA 11, and ATP 4, and pH was adjusted to 7.2 with KOH. Cells were bathed in an external solution containing the following (in mM): choline chloride 150, KCl 5, MgCl2 1, HEPES 10, D-glucose 10, and NMDG 2, and pH was adjusted to 7.4 with KOH. To record sodium currents, patch pipettes were filled with an internal solution containing the following (in mM): CsF 135, HEPES 5, and NaCl 10, and pH was adjusted to 7.2 with CsOH. Cells were bathed in external solution containing the following (in […]): NaCl 30, MgCl2 1, CaCl2 1.8, CsCl 5, D-glucose 25, KCl 5, HEPES 5, TEACl 90, and KCl 5, and pH was adjusted to 7.4 with NaOH. Capacitance and series resistance were compensated using computer-controlled circuitry of the amplifier. The outward potassium currents (IK), which contain both transient (IA) and sustained delayed-rectifier (ID) components, were elicited by a series of depolarizing pulses from −110 mV to the potentials ranged from −60 to +80 mV in a 10 mV increment. To record the ID currents, voltages were stepped to the potentials ranged from −60 to +80 mV in a 10 mV increment from a 200 ms pre-depolarization potential of −40 mV that inactivated IA currents. IA currents were obtained by subtracting ID currents from IK currents. Na^+ currents were elicited by depolarization steps from a holding potential of −100 mV to +45 mV in a 5 mV increment. Data were collected and analyzed using PatchMaster (HEKA Electronics, Pfalz, Germany) and SigmaPlot (version 10.3, Sigma-Aldrich). Concentration–response curves were fitted using the Hill equation: Inor= C + A/[1 + ([BmK NSPK]/EC50)^p] […]
# (§4) All data were presented as mean ± SEM. […] Statistical significance between different groups was calculated using an ANOVA and, where appropriate, a Dunnett′s multiple comparison test. […]
# [4] = tested on: spinal cord neurons (SCNs); test: Spontaneous calcium oscillation (SCO) measurement, FLIPR Tetra, primary cultured spinal cord neurons; type: cell-based, C57BL/6 mice; conditions: 6-8 DIV, N = 4 wells; for EC50: primary cultured SCNs, FLIPR Tetra, Hill slope = 1.0
# Method: as §1
# The intracellular Ca^2+ concentration [Ca^2+]i of SCNs was measured using FLIPR^Tetra® system (Molecular Devices, Sunnyvale, CA, USA) as described previously.
# All data were presented as mean ± SEM. Graphing and data analysis were performed using GraphPad Prism software (Version 6.0, San Diego, CA, USA). Concentration–response curves were fitted by a nonlinear logistic equation. The IC50 values and 95% confidence intervals (CI) were determined by nonlinear regression using GraphPad Prism software. Statistical significance between different groups was calculated using an ANOVA and, where appropriate, a Dunnett′s multiple comparison test. A p-value below 0.05 was considered statistically significant.
# [5] = tested on: Kv channels, transient (IA) currents in SCNs; test: Transient K+ current IA, whole-cell patch clamp in SCNs; type: cell-based, C57BL/6 mice
# Method: as §1, §2, §3, §4
# [6] = tested on: protein kinase B (Akt) phosphorylation in SCNs; test: Akt phosphorylation in SCNs, Western blot; type: cell-based, C57BL/6 mice; conditions: 30 nM, n = 4
# Method: Equal amounts (30 μg) of cell lysates were loaded onto a 10% SDS-PAGE gel and transferred to a nitrocellulose membrane by electroblotting. After blocking, the blots were incubated with primary antibodies against p-Akt (1:1000) overnight at 4 °C and then incubated with the IRDye (680 RD or 800 CW)-labeled secondary antibodies (1:10,000) for 1 h at RT. The membranes were scanned and densitometry was quantified using LI-COR Odyssey Infrared Imaging System and its application software (version 2.1, LI-COR Biotechnology). The membranes were stripped with stripping buffer (LI-COR Biotechnology) and reblotted for analysis of the expression of Akt. Beta-tubulin (1:10,000) was used as a loading control.
# [7] = tested on: spinal cord neurons (SCNs), membrane potential; test: Membrane potential, whole-cell current-clamp recording in SCNs; type: cell-based, C57BL/6 mice
# Method: as §1, §2
# For current-clamp recordings, to record changes in membrane potential, patch pipettes were filled with intracellular solution containing the following (in mM): KCl 140, MgCl2 5, CaCl2 2.5, EGTA 5, ATP 4, GTP 0.3, and HEPES 10 (pH adjusted to 7.3 with KOH). […] The membrane potentials were recorded by a 0 pA input current with a duration of 1 s. […] Data were collected and analyzed using PatchMaster (HEKA Electronics, Pfalz, Germany) and SigmaPlot (version 10.3, Sigma-Aldrich). […]
# [8] = tested on: nerve growth factor (NGF) release in SCNs; test: NGF release into culture medium of SCNs, ELISA; type: cell-based, C57BL/6 mice; conditions: 10 nM, n = 4
# Method: The NGF levels in the culture medium were determined by enzyme-linked immunosorbent assay (ELISA) kits according to the manufacturer’s instructions.
# [9] = tested on: Kv channels, delayed-rectifier (ID) currents in SCNs; test: Sustained delayed-rectifier K+ current ID, whole-cell patch clamp in SCNs; type: cell-based, C57BL/6 mice
# Method: as §1, §2, §3, §4
# [10] = tested on: sensory neurons; conditions: via TrkA receptors; ref [39]; cited from earlier work
# [11] = tested on: PC12 cells; conditions: via TrkA receptors; ref [38]; cited from earlier work
compound,measurement,setting,value
"Cn1cc(/C=C2\C(=O)Nc3cccnc32)c2ccccc21 [GW 441756, reference compound]",Effect on BmK NSPK-induced neurite outgrowth,"[1]; GW 441756 1 μM added 30 min before BmK NSPK (10 nM), 48 h, p < 0.01 vs. BmK NSPK",abolished BmK NSPK-induced neurite outgrowth
"NC1=N[C@H](O)[C@H]2[C@H]3O[C@]4(O)O[C@@H]([C@@H](O)[C@@]2(N1)[C@@H]4O)[C@]3(O)CO [tetrodotoxin, reference compound]",Effect on Na+ currents,[2],suppressed the Na^+ currents
"BmK NSPK: new short-chain scorpion peptide purified from Buthus martensii Karsch venom, Kv channel inhibitor, sequence by Edman degradation (VGKNVICIHSGQCLIPCIDAGMRFGICKNGICDCTPKG)",Voltage dependence of IK inhibition,[3]; 300 nM,voltage-dependent
same,Effect on IK currents,"[3]; 300 nM, depolarizing potentials −60 to +80 mV from holding −110 mV",inhibited the IK currents at all depolarized potentials
same,IC50,"[3]; depolarization from -110 mV to +70 mV, 95% CI 0.68–8.61 nM, Hill slope = −0.86, N = 4–5 neurons, read-out: IC50, suppression of IK currents",2.42 nM
same,Potency on outward potassium channel currents,"[3]; discussion wording, SCNs",single-digit nanomolar concentrations
same,"Completeness of inhibition of IK, IA and ID currents",[3]; highest concentration (100 nM),incomplete even at the highest concentration (100 nM)
same,Concentration of maximal stimulation of neurite extension,[1]; 48 h exposure commencing 5 h post-plating,~ 10 nM
same,Effect on neurite extension,"[1]; 48 h exposure commencing 5 h post-plating, MAP2 staining",stimulated neurite extension in cultured SCNs in a nonmonotonic manner
same,Effect on amplitude and frequency of SCOs,[4]; SCNs,rapid and sustained increase in both the amplitude and frequency of SCOs
same,EC50,"[4]; 95% CI 2.22–17.4 nM, read-out: EC50 for increase in SCO frequency",6.22 nM
same,EC50,"[4]; 95% CI 4.00–45.1 nM, read-out: EC50 for increase in SCO amplitude",13.4 nM
same,Effect on IA currents,"[5]; 300 nM, each depolarizing potential",suppressed IA currents at each depolarizing potential
same,Maximal inhibition of IA currents,[5]; Figure 4J,~ 75%
same,IC50,"[5]; IA = IK minus ID, 95% CI 0.41–2.13 nM, Hill slope = −1.27, N = 4–5 neurons, read-out: IC50, suppression of IA currents",0.93 nM
same,Duration of Akt phosphorylation increase,[6],≥ 30 min
same,Onset of Akt phosphorylation increase,[6],≤ 5 min
same,Phosphorylated levels of Akt,[6]; p < 0.01 vs. Veh,rapidly increased phosphorylated levels of Akt
same,Effect on Na+ currents,"[2]; 1000 nM, holding −100 mV to +45 mV in 5 mV increments, N = 4–5 neurons",no effect on the Na^+ currents
same,Effect on VGSCs,[2]; discussion wording,little effect on VGSCs
same,Apparent affinity for membrane depolarization (and SCO increase),"[7]; SCN cultures, discussion wording",low apparent nanomolar affinity
same,Effect on membrane potential,"[7]; SCNs, 6-8 DIV, 0 pA input, whole-cell current clamp",concentration-dependent membrane depolarization
same,Duration of NGF release,[8],at least 8 h
same,Increase in NGF release,[8]; p < 0.05 vs. Veh,~ 50%
same,Effect on ID currents,"[9]; 300 nM, potentials −60 to +80 mV after 200 ms pre-depolarization at −40 mV",inhibited ID currents elicited by a series of depolarization potentials with voltage dependence
same,Maximal inhibition of ID currents,[9]; Figure 4J,~ 43%
same,IC50,"[9]; depolarization from -40 mV to +70 mV, 95% CI 0.68–7.44 nM, Hill slope = −0.86, N = 4–5 neurons, read-out: IC50, suppression of ID currents",2.24 nM
nerve growth factor [NGF],Effect on neurite extension,[10],enhance the neurite extension
same,Effect on neurite extension,[11],enhance the neurite extension
